Measurements from US20230346744A1, “SULFUR-CONTAINING COMPOUND USEFUL FOR TREATING OR PREVENTING PRESBYOPIA” (SANTEN PHARMACEUTICAL CO., LTD., priority 2020, published 2023).

Experiments:
Assay type in all cases: in vivo
C57BL/6J mice [1] = assay: Pharmacological Test-5: once-daily instillation of Compounds 5, 6 and 7 for 2 weeks, lens elasticity; settings: once per day for 14 days
Protocol: The effect of once-daily instillation of each of Compounds 5, 6, and 7 for 2 weeks on the lens elasticity was examined.
(§1) A vehicle comprising 1.0% (w/v) of CO35, 0.1% (w/v) of ethyl pyruvate, 0.269% (w/v) of sodium dihydrogenphosphate monohydrate (NaH2 PO4.H2O), 0.433% (w/v) of disodium hydrogenphosphate (Na2HPO4), 0.2% (w/v) of hydroxypropyl methylcellulose, 0.5% (w/v) of NaCl, and purified water (appropriate amount) was prepared.
Compound 5 was stirred with the addition of the vehicle to give a 0.1% (w/v) suspension. The resulting 0.1% (w/v) suspension was diluted with the vehicle to give a 0.03% (w/v) suspension.
Compound 6 was stirred with the addition of the vehicle to give a 0.1% (w/v) suspension. The resulting 0.1% (w/v) a suspension was diluted with the vehicle to give a 0.03% (w/v) suspension.
Compound 7 was stirred with the addition of the vehicle to give a 0.1% (w/v) suspension.
After preparation, all were refrigerated.
EVO6 was stirred with the addition of the vehicle to give a 0.03% (w/v) solution, which was for comparison in the test for Compounds 5, 6 and 7. After preparation, it was refrigerated.
1) Each test sample (2.5 μL/eye) was instilled into both eyes of 8-month-old C57BL/6J mice with a Pipetman once per day (around 13:30) for 14 days.
(§2) 2) After the final instillation, the mice were euthanized by carbon dioxide inhalation, and then the eyeballs were extracted and rinsed with Hank's balanced salt solution (HBSS).
(§3) 3) The sclera near the optic nerve was cut with a razor, the lens was removed through the incision, and the removed lens was immersed in HBSS.
(§4) 4) The lens was placed on a glass slide, and an all-in-one fluorescence microscope BZ-9000 (Keyence) was used to capture an image of the lens (Image a).
(§5) 5) Next, one cover glass (Corning(registered trade mark) 22×22 mm Square) was placed on the lens, and an image in which the thickness of the lens changed due to the weight was similarly captured (Image b).
(§6) 6) A change in the lens diameter was calculated from Equation 1 wherein the lens diameter of Image a is subtracted from the lens diameter of Image b, as described below. Then, the lens elasticity improvement of each sample group compared with the vehicle control group was calculated from Equation 2 described below. The mean value of each group was based on 8 eyes.
(§7) Change in lens diameter=Lens diameter in Image b of each test sample−Lens diameter in Image a of each test sample Equation 1
(§8) Lens elasticity improvement of each sample group=Mean change in lens diameter of each Test sample group−Mean change in lens diameter of Vehicle control group Equation 2

C57BL/6J mice [2] = assay: Pharmacological Test-1: 3 times-daily instillation for 2 weeks, lens elasticity; settings: 3 times per day for 14 days; for Lens elasticity improvement: 0.03% (w/v) sample, 2.5 μL/eye, 9-month-old mice, vs vehicle control; for Lens elasticity effect compared with the vehicle control group (in words): 0.03% sample group
Protocol: The effect of 3 times-daily instillation of Compound 1 for 2 weeks on the lens elasticity was examined. The tests were conducted with reference to the methods described in InvestOphthalmol Vis Sci, 57, 2851-2863, 2016.
A vehicle comprising 1.0% (w/v) of polyoxyl 35 castor oil (hereinafter also referred to as “CO35”), 0.1% (w/v) of ethyl pyruvate, 0.269% (w/v) of sodium dihydrogenphosphate monohydrate (NaH2 PO4.H2O), 0.433% (w/v) of disodium hydrogenphosphate (Na2 HPO4), 0.2% (w/v) of hydroxypropyl methylcellulose, 0.5% (w/v) of NaCl, and purified water (appropriate amount) was prepared.
Compound 1 was stirred with the addition of the vehicle to give a 0.03% (w/v) solution. After preparation, it was refrigerated.
EVO6 was stirred with the addition of the vehicle to give a 0.03% (w/v) solution, which was for comparison in the test for Compound 1. After preparation, it was refrigerated.
1) Each test sample (2.5 μL/eye) was instilled into both eyes of 9-month-old C57BL/6J mice with a Pipetman 3 times per day (around 9:00, 13:00 and 17:00) for 14 days.
as §2, §3, §4, §5
(§9) 6) A change in the lens diameter was calculated from the following Equation 1 wherein the lens diameter of Image a is subtracted from the lens diameter of Image b. Then, the lens elasticity improvement of each sample group compared with the vehicle control group was calculated from Equation 2 described below. The mean value of the vehicle control group was based on 8 eyes, and the mean value of each of the sample groups of Compound 1 and EVO6 was based on 10 eyes.
as §7, §8

C57BL/6J mice [3] = assay: Reference Pharmacological Test 1: effect of EV06 instillation on lens elasticity; settings: 3 times per day for 15 to 17 days; for Lens elasticity improvement: 2.5 μL/eye, 8-month-old mice, vs vehicle control
Protocol: The effect of lipoic acid choline ester (EV06) on the lens elasticity was examined. The tests were conducted with reference to the methods described in InvestOphthalmol Vis Sci, 57, 2851-2863, 2016. EV06 is a compound represented by the following formula: A vehicle comprising 0.1% (w/v) of ethyl pyruvate, 0.269% (w/v) of sodium dihydrogenphosphate monohydrate (NaH2PO4.H2O), 0.433% (w/v) of disodium hydrogenphosphate (Na2HPO4), 0.2% (w/v) of hydroxypropyl methylcellulose, 0.5% (w/v) of NaCl, and purified water (appropriate amount) was prepared. EVO6 was sonicated with the addition of the vehicle to prepare a 5% (w/v) suspension. The resulting 5% (w/v) suspension was diluted with the vehicle to prepare a 1.5% (w/v) solution. Further, the resulting 1.5% (w/v) solution was diluted with the vehicle to prepare a 0.5% (w/v) solution. The total amount of each sample to be used in one day was prepared before use. 1) Each test sample (2.5 μL/eye) was instilled into the right eye of 8-month-old C57BL/6J mice with a Pipetman 3 times per day (around 9:00, 13:00 and 17:00) for 15 to 17 days. 2) After the final instillation, the mice were euthanized by carbon dioxide inhalation, and then the eyeballs were extracted and rinsed with Hank's balanced salt solution (HBSS). 3) The sclera near the optic nerve was cut with a razor, the lens was removed through the incision, and the removed lens was immersed in HBSS. 4) The lens was placed on a glass slide, and an all-in-one fluorescence microscope BZ-9000 (Keyence) was used to capture an image of the lens (Image a). 5) Next, one cover glass (Corning^(registered trade mark) 22×22 mm Square) was placed on the lens, and an image in which the thickness of the lens changed due to the weight was similarly captured (Image b). 6) A change in the lens diameter was calculated from Equation 1 wherein the lens diameter of Image a is subtracted from the lens diameter of Image b, as described below. Then, the lens elasticity improvement of each sample group compared with the vehicle control group was calculated from Equation 2 described below. The mean of the vehicle control group was based on 6 eyes and the mean of each EV06 sample group was based on 12 eyes. Change in lens diameter=Lens diameter in Image b of each test sample−Lens diameter in Image a of each test sample Equation 1 Lens elasticity improvement of each sample group=Mean change in lens diameter of each EV06 sample group−Mean change in lens diameter of Vehicle control group equation 2

Japanese White rabbit = assay: Ocular irritation test-1 (McDonald-Shadduck method); design: key to Irritation Score of anterior segment of the eye: Discharge / Irritation Score of anterior segment of the eye: Anterior chamber flare / Irritation Score of anterior segment of the eye: Light reflex / Irritation Score of anterior segment of the eye: Iris / Irritation Score of anterior segment of the eye: Corneal opacity / Irritation Score of anterior segment of the eye: Corneal angiogenesis / Irritation Score of anterior segment of the eye: Corneal epithelial disorder / Irritation Score of anterior segment of the eye: Conjunctival hyperemia / Irritation Score of anterior segment of the eye: Conjunctival edema: —: No noteworthy findings; settings: 50 μL/eye, 10 times at 30-minute intervals
Protocol: A vehicle eye drop and a 0.03% (w/v) Compound 1 eye drop were prepared in the same manner as Preparation of Test sample in Pharmacological test-1.
The vehicle eye drop, and the 0.03% (w/v) Compound 1 eye drop were each instilled into one eye of a Japanese White rabbit at a dose volume of 50 μL/eye with pipette 10 times at 30-minute intervals. One hour after the final instillation, ocular irritation of anterior segment of the eye was evaluated using a slit lamp according to the McDonald-Shadduck method.
Observation for corneal epithelial disorder was conducted 3 hours after the final instillation.
The ocular irritation of anterior segment of the eye was scored according to the following criteria: • 1: slight; +2: moderate; +3: severe

C57BL/6J mice [4] = assay: Pharmacological Test-3: once-daily instillation of Compounds 1, 2 and 3 for 2 weeks, lens elasticity; settings: 0.03% sample, 2.5 μL/eye, once per day for 14 days, 8-month-old mice, vs vehicle control
Protocol: The effect of once-daily instillation of each of Compounds 1, 2 and 3 for 2 weeks on the lens elasticity was examined.
as §1
Each of Compounds 1 and 2 was stirred with the addition of the vehicle to give a 0.1% (w/v) solution.
To Compound 3 was added the vehicle to give a 0.1% (w/v) suspension. The resulting 0.1% (w/v) suspension was diluted with the vehicle to give a 0.03% (w/v) solution. Further, the resulting 0.03% (w/v) solution was diluted with the vehicle to give a 0.01% (w/v) solution.
After preparation, all were frozen.
1) Each test sample (2.5 μL/eye) was instilled into both eyes of 8-month-old C57BL/6J mice with a Pipetman once per day (around 9:00) for 14 days.
as §2, §3, §4, §5
as §6, with “10” for “8”
as §7, §8

C57BL/6J mice [5] = assay: Pharmacological Test-2: once-daily instillation of Compound 1 for 2 weeks, lens elasticity; settings: once per day for 14 days; for Lens elasticity improvement: 2.5 μL/eye, 9-month-old mice, vs vehicle control
Protocol: The effect of once-daily instillation of Compound 1 for 2 weeks on the lens elasticity was examined.
as §1
To Compound 1 was added the vehicle to give a 0.1% (w/v) solution. The resulting 0.1% (w/v) solution was diluted with the vehicle to give a 0.03% (w/v) solution. Further, the resulting 0.03% (w/v) solution was diluted with the vehicle to give a 0.01% (w/v) solution. After preparation, all were frozen.
1) Each test sample (2.5 μL/eye) was instilled into both eyes of 9-month-old C57BL/6J mice with a Pipetman once per day (around 9:00) for 14 days.
as §2, §3, §4, §5
as §9, with “from” for “from the following”, “b, as described below.” for “b.”, “9” for “8”, “1” for “1 and EVO6”
as §7, §8

[6] = 0.03% eye drop, 1 hour after the final instillation

Compound: C[N+](C)(C)CCOC(=O)CCCC[C@@H]1CCSS1.[Cl-] [EV06, lipoic acid choline ester, reference compound]
- Lens elasticity effect (in words) (C57BL/6J mice [1]; 0.03% sample group): no elasticity improving effect
- Lens elasticity improvement (C57BL/6J mice [1]; 0.03% sample, 2.5 μL/eye, 8-month-old mice, vs vehicle control): 3.1 μm
- Lens elasticity improvement (C57BL/6J mice [2]): 3.6 μm
- Lens elasticity effect compared with the vehicle control group (in words) (C57BL/6J mice [2]): no improvement in lens elasticity
- Lens elasticity improvement (C57BL/6J mice [3]; 0.5% (w/v) sample): 28.8 μm
- Lens elasticity effect compared with the vehicle control group (in words) (C57BL/6J mice [3]; 0.5%, 1.5% and 5% groups): elasticity improving effect
- Lens elasticity improvement (C57BL/6J mice [3]; 1.5% (w/v) sample): 47.3 μm
- Lens elasticity improvement (C57BL/6J mice [3]; 5% (w/v) sample): 48.7 μm

Compound: OCCCCC[C@@H](S)CCS [Compound 1, (R)-6,8-Dimercaptooctan-1-ol]
- Irritation in anterior segment of the eye (in words) (Japanese White rabbit; 0.03% (w/v) eye drop): No irritation was observed
- Irritation Score of anterior segment of the eye: Anterior chamber flare (Japanese White rabbit; [6]): —
- Irritation Score of anterior segment of the eye: Conjunctival edema (Japanese White rabbit; [6]): —
- Irritation Score of anterior segment of the eye: Corneal angiogenesis (Japanese White rabbit; [6]): —
- Irritation Score of anterior segment of the eye: Corneal opacity (Japanese White rabbit; [6]): —
- Irritation Score of anterior segment of the eye: Discharge (Japanese White rabbit; [6]): —
- Irritation Score of anterior segment of the eye: Iris (Japanese White rabbit; [6]): —
- Irritation Score of anterior segment of the eye: Light reflex (Japanese White rabbit; [6]): —
- Irritation Score of anterior segment of the eye: Conjunctival hyperemia (Japanese White rabbit; 0.03% eye drop, 1 hour after the final instillation, scale +1 slight, +2 moderate, +3 severe): —
- Irritation Score of anterior segment of the eye: Corneal epithelial disorder (Japanese White rabbit; 0.03% eye drop, 3 hours after the final instillation): —
- Lens elasticity improvement (C57BL/6J mice [4]): 55.5 μm
- Lens elasticity improvement (C57BL/6J mice [5]; 0.01% (w/v) sample): 17.5 μm
- Lens elasticity improvement (C57BL/6J mice [5]; 0.03% (w/v) sample): 53.0 μm
- Lens elasticity improvement (C57BL/6J mice [5]; 0.1% (w/v) sample): 63.3 μm
- Lens elasticity effect (in words) (C57BL/6J mice [5]; all of the concentrations of 0.01%, 0.03% and 0.1%): showed an elasticity improving effect
- Lens elasticity improvement (C57BL/6J mice [2]): 53.8 μm
- Lens elasticity effect compared with the vehicle control group (in words) (C57BL/6J mice [2]): potent elasticity improving effect
